Values of other authors, collected in patent publication US8607989B2, “Filter composites for drug detoxification” (Vascular Vision Pharmaceutical Co., priority 2009, dated 2013).

System: breast, colon, and gastric cancer; renal cell carcinoma; and sarcoma

In the case of `O=C1[O][Pt]2([NH][C@@H]3CCCC[C@H]3[NH]2)[O]C1=O` [Oxaliplatin], the “activity in in vivo studies” value is given as “active”.
